Results from patent US10239869B2, “Sulfonamide compounds as voltage-gated sodium channel modulators” (LUPIN LIMITED, priority 2015, dated 2019).
Read-outs that look alike come from different tables or passages of the source.

How the values were obtained:
[1] = biological target: Nav 1.7 (Homo sapiens (Human), UniProt Q15858); test: Inhibition of sodium channels, Red Membrane Potential Dye FLIPR assay, veratridine depolarization; format: cell-based; details: HEK-293 cells overexpressing the channel; read-out: Nav1.7 IC50
Sequence of Nav 1.7 (Q15858 whole entry): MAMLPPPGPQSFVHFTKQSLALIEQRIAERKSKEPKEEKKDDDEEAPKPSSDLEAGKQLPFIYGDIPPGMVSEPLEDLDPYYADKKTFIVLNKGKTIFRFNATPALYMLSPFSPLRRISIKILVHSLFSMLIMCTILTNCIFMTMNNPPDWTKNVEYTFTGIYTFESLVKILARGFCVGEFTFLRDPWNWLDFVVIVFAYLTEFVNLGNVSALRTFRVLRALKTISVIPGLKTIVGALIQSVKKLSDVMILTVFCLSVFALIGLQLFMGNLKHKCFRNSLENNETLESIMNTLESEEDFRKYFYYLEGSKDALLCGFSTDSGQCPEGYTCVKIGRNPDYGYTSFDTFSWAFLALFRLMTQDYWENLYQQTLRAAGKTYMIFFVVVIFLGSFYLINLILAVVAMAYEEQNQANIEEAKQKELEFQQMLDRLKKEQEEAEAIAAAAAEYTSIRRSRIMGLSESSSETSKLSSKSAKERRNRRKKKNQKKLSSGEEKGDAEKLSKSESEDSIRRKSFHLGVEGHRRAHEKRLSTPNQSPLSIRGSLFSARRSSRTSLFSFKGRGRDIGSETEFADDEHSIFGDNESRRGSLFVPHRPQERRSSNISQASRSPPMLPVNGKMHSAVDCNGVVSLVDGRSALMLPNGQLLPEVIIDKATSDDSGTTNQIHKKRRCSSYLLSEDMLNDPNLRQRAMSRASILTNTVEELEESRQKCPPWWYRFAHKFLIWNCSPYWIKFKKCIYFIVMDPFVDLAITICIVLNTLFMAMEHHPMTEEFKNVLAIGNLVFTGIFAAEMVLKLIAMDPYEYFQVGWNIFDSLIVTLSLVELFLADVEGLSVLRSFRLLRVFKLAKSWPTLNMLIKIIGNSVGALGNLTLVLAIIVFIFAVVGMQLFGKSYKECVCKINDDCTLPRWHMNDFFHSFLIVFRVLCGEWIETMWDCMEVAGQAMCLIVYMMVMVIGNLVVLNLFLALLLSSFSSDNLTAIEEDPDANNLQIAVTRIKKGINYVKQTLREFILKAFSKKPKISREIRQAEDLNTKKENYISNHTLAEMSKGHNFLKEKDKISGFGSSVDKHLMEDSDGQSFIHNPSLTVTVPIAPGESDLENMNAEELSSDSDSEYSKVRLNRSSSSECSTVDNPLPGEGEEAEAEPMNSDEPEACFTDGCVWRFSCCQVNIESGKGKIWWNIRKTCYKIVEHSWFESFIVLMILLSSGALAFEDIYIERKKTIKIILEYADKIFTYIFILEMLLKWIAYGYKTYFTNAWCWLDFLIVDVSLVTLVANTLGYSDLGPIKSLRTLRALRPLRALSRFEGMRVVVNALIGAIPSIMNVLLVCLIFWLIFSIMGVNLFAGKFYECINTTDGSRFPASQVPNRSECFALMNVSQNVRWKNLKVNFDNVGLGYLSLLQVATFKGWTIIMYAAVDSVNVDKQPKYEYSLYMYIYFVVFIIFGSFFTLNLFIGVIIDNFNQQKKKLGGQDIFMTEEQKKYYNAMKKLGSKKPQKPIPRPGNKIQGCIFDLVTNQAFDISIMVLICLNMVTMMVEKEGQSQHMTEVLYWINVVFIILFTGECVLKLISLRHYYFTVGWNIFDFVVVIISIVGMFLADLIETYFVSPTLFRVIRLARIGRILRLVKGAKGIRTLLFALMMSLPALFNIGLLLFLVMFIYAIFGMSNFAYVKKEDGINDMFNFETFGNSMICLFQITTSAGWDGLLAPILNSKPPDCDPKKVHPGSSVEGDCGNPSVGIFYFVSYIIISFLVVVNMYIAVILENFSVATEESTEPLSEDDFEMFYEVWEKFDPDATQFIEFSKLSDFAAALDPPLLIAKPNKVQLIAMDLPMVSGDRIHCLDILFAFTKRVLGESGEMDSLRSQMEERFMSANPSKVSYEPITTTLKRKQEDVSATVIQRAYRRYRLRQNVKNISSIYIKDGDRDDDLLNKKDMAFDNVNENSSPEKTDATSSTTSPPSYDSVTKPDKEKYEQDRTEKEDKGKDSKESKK

[2] = biological target: Nav 1.5 (Homo sapiens (Human), UniProt Q14524); test: as above; format: cell-based; details: HEK-293 cells overexpressing the channel
Sequence of Nav 1.5 (Q14524 whole entry): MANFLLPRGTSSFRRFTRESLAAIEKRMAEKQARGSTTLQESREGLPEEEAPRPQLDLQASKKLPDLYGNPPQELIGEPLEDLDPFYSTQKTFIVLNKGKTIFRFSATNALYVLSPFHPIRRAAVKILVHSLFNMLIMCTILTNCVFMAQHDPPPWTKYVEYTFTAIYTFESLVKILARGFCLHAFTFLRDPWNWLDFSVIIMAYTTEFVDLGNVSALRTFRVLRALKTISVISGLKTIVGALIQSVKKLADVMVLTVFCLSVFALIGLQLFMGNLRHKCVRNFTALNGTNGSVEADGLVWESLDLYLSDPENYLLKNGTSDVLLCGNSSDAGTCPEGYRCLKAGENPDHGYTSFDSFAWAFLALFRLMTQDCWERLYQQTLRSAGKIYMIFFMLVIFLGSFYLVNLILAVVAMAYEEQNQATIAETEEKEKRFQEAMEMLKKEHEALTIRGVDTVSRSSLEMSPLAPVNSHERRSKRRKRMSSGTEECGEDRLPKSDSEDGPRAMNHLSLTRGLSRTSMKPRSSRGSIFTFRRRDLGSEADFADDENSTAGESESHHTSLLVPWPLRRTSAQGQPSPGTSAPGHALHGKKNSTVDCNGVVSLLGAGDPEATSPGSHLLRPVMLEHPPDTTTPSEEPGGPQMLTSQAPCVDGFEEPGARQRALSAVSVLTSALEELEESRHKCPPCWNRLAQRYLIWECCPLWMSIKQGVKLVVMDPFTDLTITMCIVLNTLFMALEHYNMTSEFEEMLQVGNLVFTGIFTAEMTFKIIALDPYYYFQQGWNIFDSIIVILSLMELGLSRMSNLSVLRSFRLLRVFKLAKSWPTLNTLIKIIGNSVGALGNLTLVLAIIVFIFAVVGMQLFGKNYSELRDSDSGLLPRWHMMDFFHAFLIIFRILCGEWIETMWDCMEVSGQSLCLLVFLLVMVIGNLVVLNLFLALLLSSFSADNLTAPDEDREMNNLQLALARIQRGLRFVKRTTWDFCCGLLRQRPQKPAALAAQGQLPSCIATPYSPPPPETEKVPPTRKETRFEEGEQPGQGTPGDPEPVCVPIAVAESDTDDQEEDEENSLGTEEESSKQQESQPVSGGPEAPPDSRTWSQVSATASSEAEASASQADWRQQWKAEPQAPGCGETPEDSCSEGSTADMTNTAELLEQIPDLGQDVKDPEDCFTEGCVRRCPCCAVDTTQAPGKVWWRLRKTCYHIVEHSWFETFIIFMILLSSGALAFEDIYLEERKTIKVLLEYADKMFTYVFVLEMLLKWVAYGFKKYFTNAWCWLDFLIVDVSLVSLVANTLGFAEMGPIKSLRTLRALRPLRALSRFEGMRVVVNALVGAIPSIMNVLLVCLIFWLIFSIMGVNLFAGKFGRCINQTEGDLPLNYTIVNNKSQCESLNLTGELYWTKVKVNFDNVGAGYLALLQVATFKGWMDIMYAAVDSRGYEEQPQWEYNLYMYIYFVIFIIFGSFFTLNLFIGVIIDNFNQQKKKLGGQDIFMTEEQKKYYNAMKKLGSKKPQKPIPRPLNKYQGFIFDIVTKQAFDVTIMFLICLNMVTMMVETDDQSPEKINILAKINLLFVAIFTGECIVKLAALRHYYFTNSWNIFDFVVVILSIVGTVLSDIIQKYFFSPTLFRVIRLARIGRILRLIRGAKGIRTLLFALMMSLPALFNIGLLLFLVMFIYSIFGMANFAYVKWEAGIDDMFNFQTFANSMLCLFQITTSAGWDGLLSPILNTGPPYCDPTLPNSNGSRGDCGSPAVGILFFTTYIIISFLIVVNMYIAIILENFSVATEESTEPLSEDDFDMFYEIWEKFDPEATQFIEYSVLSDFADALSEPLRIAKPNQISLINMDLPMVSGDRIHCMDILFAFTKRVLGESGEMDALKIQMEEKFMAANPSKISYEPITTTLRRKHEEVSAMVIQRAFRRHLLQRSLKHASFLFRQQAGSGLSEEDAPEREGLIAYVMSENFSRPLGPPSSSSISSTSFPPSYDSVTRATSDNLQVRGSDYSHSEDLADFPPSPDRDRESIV

[3] = read-out: Nav1.5 IC50 (bound given in μM)

SMILES | IC50 [1] [nM] | Nav1.5 % inhibition @ 10 μM [2] [%] | IC50 [2, 3] [µM] | IC50 ([2]; read-out: Nav1.5 IC50) [µM]
COCCCOc1cc(C(F)(F)F)ccc1[C@H]1CCOc2cc(S(=O)(=O)Nc3ncccn3)ccc21 [Example 131, (S&R)-4-(2-(3-methoxypropoxy)-4-(trifluoromethyl)phenyl)-N-(pyrimidin-2-yl)chroman-7-sulfonamide] | 53 | 66 |  | 
COCCCc1cc(C(F)(F)F)ccc1[C@@H]1CCOc2cc(S(=O)(=O)Nc3ncccn3)ccc21 [Example 140, (S&R)-4-(2-(3-methoxypropyl)-4-(trifluoromethyl)phenyl)-N-(pyrimidin-2-yl)chroman-7-sulfonamide] | 1740 |  | > 10 | 
COCCCc1cc(C(F)(F)F)ccc1[C@H]1CCOc2cc(S(=O)(=O)Nc3ncccn3)ccc21 [Example 141, (S&R)-4-(2-(3-methoxypropyl)-4-(trifluoromethyl)phenyl)-N-(pyrimidin-2-yl)chroman-7-sulfonamide] | 69 | 65 |  | 
COCCCCc1cc(C(F)(F)F)ccc1[C@@H]1CCOc2cc(S(=O)(=O)Nc3ncccn3)ccc21 [Example 146, (S&R)-4-(2-(4-methoxybutyl)-4-(trifluoromethyl)phenyl)-N-(pyrimidin-2-yl)chroman-7-sulfonamide] | 790 |  | > 10 | 
COCCCCc1cc(C(F)(F)F)ccc1[C@H]1CCOc2cc(S(=O)(=O)Nc3ncccn3)ccc21 [Example 147, (S&R)-4-(2-(4-methoxybutyl)-4-(trifluoromethyl)phenyl)-N-(pyrimidin-2-yl)chroman-7-sulfonamide] | 199 | 60 |  | 
COCCCCc1cc(C(F)(F)F)ccc1[C@@H]1CCOc2cc(S(=O)(=O)Nc3cccc(F)n3)ccc21 [Example 151, (S&R)—N-(6-fluoropyridin-2-yl)-4-(2-(4-methoxybutyl)-4-(trifluoromethyl)phenyl)chroman-7-sulfonamide] | 390 | 57 |  | 
COCCCCc1cc(C(F)(F)F)ccc1[C@H]1CCOc2cc(S(=O)(=O)Nc3cccc(F)n3)ccc21 [Example 152, (S&R)—N-(6-fluoropyridin-2-yl)-4-(2-(4-methoxybutyl)-4-(trifluoromethyl)phenyl)chroman-7-sulfonamide] | 40 | 67 |  | 
O=S(=O)(Nc1ncccn1)c1ccc2c(c1)OCC[C@H]2c1ccc(C(F)(F)F)cc1OC1CCOCC1 [Example-168, (R&S)—N-(pyrimidin-2-yl)-4-(2-((tetrahydro-2H-pyran-4-yl)oxy)-4-(trifluoromethyl)phenyl)chroman-7-sulfonamide] | 3900 |  | > 10 | 
O=S(=O)(Nc1ncccn1)c1ccc2c(c1)OCC[C@@H]2c1ccc(C(F)(F)F)cc1OC1CCOCC1 [Example-169, (R&S)—N-(pyrimidin-2-yl)-4-(2-((tetrahydro-2H-pyran-4-yl)oxy)-4-(trifluoromethyl)phenyl)chroman-7-sulfonamide] | 43 |  |  | 4.89
O=S(=O)(Nc1ncc(F)cn1)c1ccc2c(c1)OCC[C@H]2c1ccc(C(F)(F)F)cc1OC1CCOCC1 [Example-170, (R&S)—N-(5-fluoropyrimidin-2-yl)-4-(2-((tetrahydro-2H-pyran-4-yl)oxy)-4-(trifluoromethyl)phenyl)chroman-7-sulfonamide] | 1090 |  | > 10 | 
O=S(=O)(Nc1ncc(F)cn1)c1ccc2c(c1)OCC[C@@H]2c1ccc(C(F)(F)F)cc1OC1CCOCC1 [Example-171, (R&S)—N-(5-fluoropyrimidin-2-yl)-4-(2-((tetrahydro-2H-pyran-4-yl)oxy)-4-(trifluoromethyl)phenyl)chroman-7-sulfonamide] | 125 | 53 |  | 
O=S(=O)(Nc1ccncn1)c1ccc2c(c1)OCC[C@H]2c1ccc(C(F)(F)F)cc1OC1CCOCC1 [Example-172, (R&S)—N-(pyrimidin-4-yl)-4-(2-((tetrahydro-2H-pyran-4-yl)oxy)-4-(trifluoromethyl)phenyl)chroman-7-sulfonamide] | 2740 |  | > 10 | 
